Test [1] concerns lymphocytic leukemia P388. The test is described as follows: in vivo lymphocytic leukemia P388 test. Set-up: species or system mice. The note with it: Mus musculus, P388, ip, 720 h, two single doses four days apart, read-out: T/C × 100 (Percent); for response vs control in vivo at 6.25 mg/kg: P388, Dose 6.25 mg/kg intraperitoneally; for response vs control in vivo at 12.5 mg/kg: P388, Dose 12.5 mg/kg intraperitoneally. Put shortly: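 Efficacy was judged from the treated/control survival-time ratio over 30 days (T/C×100 >125% as criterion). Mice (CD2F, 6–7/group) received i.p. P388 ascites cells, then compound i.p. at varied doses twice, four days apart.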

The next test deals with Bacillus subtilis. The test is described as follows: agar plate paper-disc inhibition zone screening. To be noted: read-out: Inhibition Zone Diameter mm (Dose mg/ml) B. Subtilis; for zone of inhibition at 3000 µg/mL: Dose 3.0 mg/ml. Format: cell-based. Put shortly: (§1)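 Read-out: diameter (mm) of the inhibition zone around 12.7 mm paper discs after overnight (18-20 h) incubation at 37°C. Discs carried compound at 3,000-10 mcg/ml in alcohol, DMSO or DMF, final solvent <10%. Seeded agar trays used saline-suspended cells adjusted to 20-35% transmittancy.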

The subject of the next test is Streptococcus faecalis. The test is described as follows: agar plate paper-disc inhibition zone screening. It counts as cell-based. To be noted: Enterococcus faecalis; Dose 3.0 mg/ml; read-out: Inhibition Zone Diameter mm (Dose mg/ml) S. Faecalis. Put shortly: as §1
In another test the test system is Aerobacter aerogenes. The test is described as follows: agar plate paper-disc inhibition zone screening. It counts as cell-based. The note with it: Klebsiella aerogenes, read-out: Inhibition Zone Diameter mm (Dose mg/ml) A. Aerogenes; for zone of inhibition at 3000 µg/mL: Dose 3.0 mg/ml. Put shortly: as §1
The next test relates to Escherichia coli. The test is described as follows: agar plate paper-disc inhibition zone screening. Format: cell-based. To be noted: read-out: Inhibition Zone Diameter mm (Dose mg/ml) E. Coli; for zone of inhibition at 3000 µg/mL: Dose 3.0 mg/ml. Put shortly:
as §1

A further test concerns Penicillium avellaneum. The test is described as follows: agar plate paper-disc inhibition zone screening. Format: cell-based. To be noted: Hamigera avellanea; Dose 3.0 mg/ml; read-out: Inhibition Zone Diameter mm (Dose mg/ml) P. Avellaneum. Put shortly:
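Mycelia and spores from a six-day 28°C agar culture, suspended in saline with 0.05% Tween 80 at 20% transmittancy, were seeded into molten agar trays. Compounds at 3,000, 1,000, 500, 100 and 10 mcg/ml (solvent <10%) were applied on 12.7 mm paper discs. After at least 20-24 h incubation, inhibition zone diameter was measured in mm.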

This note sets out measurements from EP0103381B1, “Substituted anthra(1,9-cd)pyrazol-6(2H)-ones” (WARNER-LAMBERT COMPANY, priority 1982, dated 1984).

With `CCN(CC)CCNc1ccc2c3c(nn2CCO)-c2c(O)ccc(O)c2C(=O)c13` [Example 35, 5-[[2-(Diethylamino)ethyl]amino]-7,10-dihydroxy-2-(2-hydroxyethyl)anthra[1,9-cd]pyrazol-6(2H)-one], in test [1] (P388, Dose 25 mg/kg intraperitoneally), the response vs control in vivo at 25 mg/kg worked out at 128%. Moreover, the response vs control in vivo at 37.5 mg/kg in test [1] (P388, Dose 37.5 mg/kg intraperitoneally) was 135%. The response vs control in vivo at 75 mg/kg in test [1] (P388, Dose 75 mg/kg intraperitoneally) came out at 135%. In addition, in test [1] (P388, Dose 150 mg/kg intraperitoneally), the response vs control in vivo at 150 mg/kg was determined as 155%. Besides, in test [1] (P388, Dose 200 mg/kg intraperitoneally), the response vs control in vivo at 200 mg/kg came out at 167%. In addition, in test [1] (P388, Dose 300 mg/kg intraperitoneally), the response vs control in vivo at 300 mg/kg came to 177%. For the same compound, in test [1] (P388, Dose 400 mg/kg intraperitoneally), the response vs control in vivo at 400 mg/kg is 190%. Also, in the test with Bacillus subtilis (Dose 0.5 mg/ml), the zone of inhibition at 500 µg/mL was 14 mm. Moreover, the zone of inhibition at 3000 µg/mL with Streptococcus faecalis worked out at 14 mm; in the test with Aerobacter aerogenes, 0 mm; in the test with Escherichia coli, 0 mm; in the test with Penicillium avellaneum, 0 mm.

For the compound `CN(C)CCn1nc2c3c(c(NCCNCCO)ccc31)C(=O)c1c(O)ccc(O)c1-2` [Example 32], the response vs control in vivo at 0.78 mg/kg in test [1] (P388, Dose 0.78 mg/kg intraperitoneally) came out at 161%. Besides, the response vs control in vivo at 1.56 mg/kg in test [1] (P388, Dose 1.56 mg/kg intraperitoneally) was determined as 163%. Besides, the response vs control in vivo at 6.25 mg/kg in test [1] worked out at 214%. Further, the zone of inhibition at 1000 µg/mL in the test with Bacillus subtilis (Dose 1.0 mg/ml) amounted to 15 mm; with Aerobacter aerogenes (Dose 1.0 mg/ml), 14 mm. Moreover, the zone of inhibition at 3000 µg/mL in the test on Streptococcus faecalis and in the test with Penicillium avellaneum was 0 mm each time. Also, the zone of inhibition at 500 µg/mL in the test on Escherichia coli (Dose 0.5 mg/ml) turned out to be 15 mm.

For the compound `O=C1c2c(O)ccc(O)c2-c2nn(CCO)c3ccc(NCCNCCO)c1c23` [Example 36, 5-[[2-[(2-Hydroxyethyl)amino]ethyl]amino]-7,10-dihydroxy-2-(2-hydroxyethyl)anthra[1,9-cd]pyrazol-6(2H)- . one], in test [1], the response vs control in vivo at 6.25 mg/kg was determined as 143%. The response vs control in vivo at 12.5 mg/kg in test [1] was 158%. Besides, the response vs control in vivo at 50 mg/kg in test [1] (P388, Dose 50 mg/kg intraperitoneally) was found to be 163%. The response vs control in vivo at 100 mg/kg in test [1] (P388, Dose 100 mg/kg intraperitoneally) came to 172%. In addition, the zone of inhibition at 3000 µg/mL with Bacillus subtilis came out at 17 mm; in the test on Streptococcus faecalis, 0 mm; in the test with Aerobacter aerogenes it was 0 mm; in the test on Escherichia coli, 0 mm; with Penicillium avellaneum, 0 mm.

On to `CN(C)CCn1nc2c3c(c(NCCCN)ccc31)C(=O)c1c(O)ccc(O)c1-2` [Example 34, 5-[(3-Aminopropyl)amino]-2-[2-(dimethylamino)ethyl]-7,10-dihydroxyanthra[1,9-cd]pyrazol-6(2H)-one], for which, in test [1], the response vs control in vivo at 6.25 mg/kg is 196%. In test [1], the response vs control in vivo at 12.5 mg/kg came to 205%. Also, the zone of inhibition at 3000 µg/mL in the test with Bacillus subtilis turned out to be 0 mm; with Streptococcus faecalis, 0 mm; in the test on Aerobacter aerogenes it was 14 mm; with Escherichia coli it was 15 mm; with Penicillium avellaneum, 0 mm.
